Our source for the TGI and GI50 values is PubChem BioAssay (NCI).

The structures appear in SMILES notation.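 Dose response: 5 concentrations. Exposure: 48 h. Format: 96-well plates. Endpoint: linear interpolation; highest concentration if not reached. GI50 is the concentration that inhibits growth by half. TGI marks complete inhibition of growth.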 Some results are limits rather than exact numbers.

Among the test systems are MDA-N; SNB-78 CNS; RXF-631 renal; M19-MEL melanoma; DMS 114 small cell lung; DMS 273 small cell lung; DLD-1 colon; HOP-18 NSCLC; XF 498 CNS.
Holding throughout (test): DTP human tumour cell line panel, 48 h

With `O=C(CCl)Nc1cc(Cl)c(Cl)cc1Cl`, the TGI (as a rule, the concentration at which net growth stops) in the assay on MDA-N turned out to be 3.19 µM.
Same read-out and setting: under `O=C1C=CC(=Nc2cccc3c(N=C4C=CC(=O)O4)cccc23)O1` stands 69.1 µM.
The same measure, in the same setting: under `C(=Nc1cnc2ccccc2c1)c1ccc2ccccc2n1` stands over 100 µM; under `O=C(/C=C/C(Cl)(Cl)Cl)Nc1ccc(Cl)cc1`, 13.8 µM; under `CN(C)Cc1ccc(C(C)(C)C)cc1-c1cc(C(C)(C)C)ccc1CN(C)C`, over 100 µM.
Regarding `CC1=C(C(=O)NCc2ccccc2)C(c2ccccc2C)C(C(=O)NCc2ccccc2)=C(C)N1`, the TGI in the assay on SNB-78 CNS is over 100 µM; with RXF-631 renal, over 100 µM; in the assay with M19-MEL melanoma, over 75.8 µM; in the assay with DMS 114 small cell lung it was over 67.7 µM; with DMS 273 small cell lung, over 69.9 µM; in the assay with DLD-1 colon, 51.3 µM. Moreover, the TGI with HOP-18 NSCLC is over 91.2 µM.
On to `COc1cc2c(cc1O)CN1CCC23C=C[C@@H](O)CC13` (stereo partly specified), for which the TGI in the assay with SNB-78 CNS, with M19-MEL melanoma, with DMS 114 small cell lung, in the assay on DMS 273 small cell lung, in the assay with DLD-1 colon and in the assay on HOP-18 NSCLC was over 100 µM in each case.
Take `Cc1cc(=O)n(-c2c(C)cccc2Cl)c(/C=C(\O)c2ccncc2)n1`: the concentration for total growth inhibition (TGI) with SNB-78 CNS, in the assay on RXF-631 renal, in the assay with DMS 114 small cell lung, in the assay with DMS 273 small cell lung, in the assay with DLD-1 colon and in the assay on HOP-18 NSCLC was over 100 µM in each case.
Molecule `C[C@H](CS)C(=O)N1c2ccccc2C[C@H]1C(=O)O` had a TGI in the assay with MDA-N of over 100 µM.
Take `CC(=O)Nc1ccc(/C=C2\N=C(c3ccccc3)OC2=O)cc1`: the TGI in the assay on DMS 114 small cell lung, in the assay on DLD-1 colon and with HOP-18 NSCLC was over 100 µM throughout.
`CC(=O)OCC1OC(OCc2ccccc2)C(Br)C(OC(C)=O)C1OC(C)=O` (stereo unspecified): the concentration for total growth inhibition (TGI) in the assay with SNB-78 CNS, in the assay on RXF-631 renal, in the assay on M19-MEL melanoma, in the assay on DMS 273 small cell lung, with DLD-1 colon and in the assay with HOP-18 NSCLC was over 100 µM each time. This molecule also gave a total growth inhibition concentration (TGI) in the assay on XF 498 CNS of over 100 µM.
Consider `O=C(COc1ccc(OCC(=O)N2C(=O)CN(c3ccccc3)C2=S)cc1)N1C(=O)CN(c2ccccc2)C1=S`, for which, in the assay with MDA-N, the GI50 (commonly the concentration at which growth is held to half of that of the control) is over 25 µM and the TGI was over 100 µM.
In the case of `COc1cccc(/C=C/c2ccnc3ccccc23)c1OC`, the total growth inhibition concentration (TGI) in the assay with MDA-N was over 10 µM.
As for `CCOC(=O)C(NO)C(Sc1ccccc1)c1ccc(OC)cc1` (stereo unspecified), the TGI with SNB-78 CNS, in the assay with M19-MEL melanoma, in the assay with DMS 114 small cell lung, with DMS 273 small cell lung, in the assay on DLD-1 colon and in the assay on HOP-18 NSCLC was over 100 µM each time. For the same molecule, the TGI in the assay with XF 498 CNS was over 100 µM.
Regarding `CC(=O)[CH-]C(=O)c1ccccc1.CC(=O)[CH-]C(=O)c1ccccc1.CC(C)CCC[C@H](C)C1CCC2[C@@H]3CC=C4C[C@@H]([O-])CC[C@]4(C)C3CC[C@@]21C.CC(C)CCC[C@H](C)C1CCC2[C@@H]3CC=C4C[C@@H]([O-])CC[C@]4(C)C3CC[C@@]21C.Cl.[Ti+4]` (stereo partly specified), the GI50 in the assay with DMS 273 small cell lung, in the assay on DLD-1 colon and in the assay on HOP-18 NSCLC was over 25 µM each time. The concentration for total growth inhibition (TGI) in the assay with DMS 273 small cell lung, in the assay on DLD-1 colon and in the assay with HOP-18 NSCLC was over 25 µM throughout.
As for `CCOc1ccc(OCC)c([P+](c2ccccc2)(c2ccccc2)c2ccccc2)c1`, the TGI in the assay with SNB-78 CNS was over 100 µM; in the assay with RXF-631 renal, 51.4 µM; in the assay on M19-MEL melanoma, 16.3 µM; with DMS 114 small cell lung, 3.18 µM; in the assay on DMS 273 small cell lung, 1.21 µM; in the assay with DLD-1 colon it was 16 µM. The concentration for total growth inhibition (TGI) in the assay on HOP-18 NSCLC was determined as 6.22 µM; with XF 498 CNS, 0.542 µM.
As to `COc1ccc2c(c1)[n+](=O)c(C(=O)C/C(=N/NC(=O)C[N+](C)(C)C)C(=O)Nc1cccc(C)c1C)c(C)n2O`, the TGI in the assay with SNB-78 CNS, in the assay on RXF-631 renal, in the assay on M19-MEL melanoma, in the assay with DMS 114 small cell lung, with DMS 273 small cell lung and in the assay with DLD-1 colon was over 100 µM in each case. In addition, the total growth inhibition concentration (TGI) in the assay on HOP-18 NSCLC was over 100 µM.
On to `O=Cc1c(-c2ccccc2)[nH]c2ccccc2c1=O`, for which the TGI in the assay with MDA-N is 34.2 µM.
With `CN(C)CCn1cnc2ncccc2c1=O`, the total growth inhibition concentration (TGI) with SNB-78 CNS, in the assay on M19-MEL melanoma, in the assay on DMS 114 small cell lung, in the assay on DMS 273 small cell lung, in the assay on DLD-1 colon and in the assay on XF 498 CNS was over 100 µM throughout.
Turning to `COc1ccc(S(=O)(=O)N[C@H](C(=O)O)c2ccccc2)cc1`, the TGI in the assay with SNB-78 CNS, in the assay with M19-MEL melanoma, with DMS 114 small cell lung, in the assay on DMS 273 small cell lung, in the assay with DLD-1 colon and with HOP-18 NSCLC was over 100 µM throughout. In the assay on XF 498 CNS, this molecule yielded a concentration for total growth inhibition (TGI) of over 100 µM.
`COc1cccc2nc3ccccc3nc12` showed a TGI in the assay with MDA-N of over 100 µM.
Turning to `COC1OC(CBr)C(OC(=O)c2ccccc2)C(OS(=O)(=O)c2ccc(C)cc2)C1Br` (stereo unspecified), the TGI in the assay on SNB-78 CNS, in the assay on M19-MEL melanoma and with DMS 273 small cell lung was over 100 µM each time.
In the case of `O=C(N/C(=C\c1ccccc1Cl)c1nc2ccccc2[nH]1)c1ccccc1`, the total growth inhibition concentration (TGI) in the assay on SNB-78 CNS is over 100 µM; with RXF-631 renal, over 100 µM; in the assay on M19-MEL melanoma, over 100 µM; in the assay on DMS 114 small cell lung, over 100 µM; in the assay on DLD-1 colon, over 100 µM; in the assay on XF 498 CNS it was 57.5 µM.
Regarding `COC(=O)C1C(=O)O[C@@H](c2ccc(OC)c(OC)c2OC)C1C(=O)OC` (mixture of isomers), the TGI in the assay on SNB-78 CNS, in the assay on RXF-631 renal, with M19-MEL melanoma, in the assay on DMS 114 small cell lung, in the assay with DMS 273 small cell lung and with DLD-1 colon was over 100 µM in each case. In the assay with XF 498 CNS, this molecule yielded a TGI of over 100 µM.
Turning to `CN(NC1OC(CO)C(O)C(O)C1O)c1ccccc1` (stereo unspecified), the concentration for total growth inhibition (TGI) in the assay with SNB-78 CNS was over 100 µM; in the assay with M19-MEL melanoma, over 100 µM; with DMS 273 small cell lung it was over 100 µM; in the assay with DLD-1 colon it was over 100 µM; in the assay with HOP-18 NSCLC it was over 100 µM; in the assay with XF 498 CNS, 30.6 µM.
For `COC1[C@H](NC(=O)OC(C)(C)C)C(=O)N1Cc1ccccc1` (stereo partly specified), the TGI with SNB-78 CNS, with M19-MEL melanoma, in the assay on DMS 114 small cell lung, in the assay on DMS 273 small cell lung, with DLD-1 colon and in the assay on XF 498 CNS was over 100 µM throughout.
Take `CN(C)C(=O)NC(=S)N(C)C`: the TGI with SNB-78 CNS, in the assay with M19-MEL melanoma, in the assay on DMS 114 small cell lung, in the assay with DMS 273 small cell lung, in the assay on DLD-1 colon and with HOP-18 NSCLC was over 100 µM in each case. In the assay on XF 498 CNS, this molecule registered a concentration for total growth inhibition (TGI) of over 100 µM.
On to `CCCCCCCCCCCCCCCCc1c(C(=O)OC)nc(NN)[nH]c1=O`, for which the total growth inhibition concentration (TGI) in the assay on SNB-78 CNS, in the assay on RXF-631 renal, in the assay on M19-MEL melanoma, with DMS 114 small cell lung, in the assay on DMS 273 small cell lung and in the assay with DLD-1 colon was over 50 µM throughout. Further, the TGI with HOP-18 NSCLC and in the assay on XF 498 CNS was over 50 µM in each case.
Consider `CC1CCC(=O)C(C(O)CC2CC(=O)N(c3ccccc3)C(=O)C2)C1` (stereo unspecified), for which the total growth inhibition concentration (TGI) with SNB-78 CNS, in the assay with M19-MEL melanoma, with DMS 114 small cell lung, with DMS 273 small cell lung, in the assay with DLD-1 colon and with HOP-18 NSCLC was over 100 µM each time.
Regarding `COc1ccc2nc3cc([N+](=O)[O-])ccc3c(NNc3ccccc3)c2c1`, the TGI in the assay on MDA-N is over 100 µM.
On the same count and under the same terms, under `O=CNc1ccc(S(=O)(=O)c2ccc(NC=O)cc2)cc1` stands over 100 µM; under `O=c1ccc(=O)n(-c2ccccc2)[nH]1`, over 100 µM.
For `Cc1nc(N)c(-c2ccccc2)s1`, the concentration for total growth inhibition (TGI) with SNB-78 CNS, in the assay with RXF-631 renal, in the assay on M19-MEL melanoma, with DMS 114 small cell lung, with DMS 273 small cell lung and in the assay on DLD-1 colon was over 100 µM each time. The total growth inhibition concentration (TGI) with HOP-18 NSCLC and in the assay on XF 498 CNS was over 100 µM throughout.
As to `Clc1ccc(OCc2nnc3n2N=C(c2ccc(Br)cc2)CS3)cc1`, the TGI in the assay with SNB-78 CNS was 81.1 µM; in the assay on M19-MEL melanoma, over 100 µM; in the assay on DMS 114 small cell lung, 54 µM; in the assay with DMS 273 small cell lung it was over 100 µM; in the assay with XF 498 CNS, 21.4 µM.
`CCN(CC)CC(=O)NC1c2ccccc2Oc2c(C)cccc21` (stereo unspecified): the TGI with SNB-78 CNS, with M19-MEL melanoma, with DMS 114 small cell lung, with DMS 273 small cell lung, in the assay with DLD-1 colon and with XF 498 CNS was over 100 µM in each case.
With `O=C(CO[N+](=O)[O-])OC/C=C/c1ccccc1`, the concentration for total growth inhibition (TGI) with M19-MEL melanoma, in the assay on DMS 114 small cell lung, in the assay with DMS 273 small cell lung and with DLD-1 colon was over 100 µM throughout.
In the assay on MDA-N, `O=C(O)c1c(Cl)c(Cl)c(Cl)c(Cl)c1C(=O)Nc1ccc2cn[nH]c2c1` gave a TGI of over 100 µM.
Take `COc1ccc(-c2ccccc2)c2[nH]c3c(c12)CCNC3=O`: the TGI in the assay on SNB-78 CNS, with M19-MEL melanoma, in the assay on DMS 273 small cell lung and in the assay with DLD-1 colon was over 100 µM throughout.
